Data on five molecules can be found in BindingDB's records for doi:10.1016/s0960-894x(03)00664-4 (Eli Lilly, 2003).

The structures appear in SMILES notation. pIC50: −log10 of the molar value.

The test has as its target Acetyl-CoA carboxylase 1 (Rattus norvegicus, UniProt P11497). Nature of the test: Inhibitory concentration against rat heart ACC by the carboxylation of acetyl-CoA with [14C]-HCO3- to form [14C]-malonyl CoA; 18-40 uM.
Usually pIC50 stands for the negative decadic logarithm of the IC50, by convention in mol/L. A higher pIC50 goes with a low IC50. For `CC/C(=N\OC/C=C/Cl)C1C(=O)CC(C2CCOCC2)CC1=O` (stereo not given) [2-{1-[(E)-(E)-3-Chloro-allyloxyimino]-propyl}-3-hydroxy-5-(tetrahydro-pyran-4-yl)-cyclohex-2-enone], the pIC50 is 4.40.

On to `CCSC(C)CC1CC(=O)C(/C(CC)=N/OC/C=C/Cl)C(=O)C1` (stereo not given) [clethodim], for which the pIC50 is 4.40.

Molecule `CCO/N=C(\CC)C1C(=O)CC(c2c(C)cc(C)cc2C)CC1=O` (stereo not given) [2-{1-[(E)-Ethoxyimino]-propyl}-3-hydroxy-5-(2,4,6-trimethyl-phenyl)-cyclohex-2-enone] had a pIC50 of 4.40.

Turning to `CCC/C(=N\OCC)C1C(=O)CC(CC(C)SCC)CC1=O` (stereo not given) [2-{1-[(E)-Ethoxyimino]-butyl}-5-(2-ethylsulfanyl-propyl)-3-hydroxy-cyclohex-2-enone], the pIC50 was 4.40.

Molecule `CCC/C(=N\OCC)C1C(=O)CC(C2CCCSC2)CC1=O` (stereo not given) [2-{1-[(E)-Ethoxyimino]-butyl}-3-hydroxy-5-(tetrahydro-thiopyran-3-yl)-cyclohex-2-enone] had a pIC50 of 4.40.
